Results published in patent US9988373B2, “Nitrogen-containing six-membered cyclic derivatives and pharmaceutical composition comprising the same” (SHIONOGI & CO., LTD., priority 2013, dated 2018).

Molecular target: T1, human P2X7 receptor (Homo sapiens, UniProt Q99572, R270H)
T1 construct: expressed in transfected cells
T1 sequence (Q99572 1-595 R270H): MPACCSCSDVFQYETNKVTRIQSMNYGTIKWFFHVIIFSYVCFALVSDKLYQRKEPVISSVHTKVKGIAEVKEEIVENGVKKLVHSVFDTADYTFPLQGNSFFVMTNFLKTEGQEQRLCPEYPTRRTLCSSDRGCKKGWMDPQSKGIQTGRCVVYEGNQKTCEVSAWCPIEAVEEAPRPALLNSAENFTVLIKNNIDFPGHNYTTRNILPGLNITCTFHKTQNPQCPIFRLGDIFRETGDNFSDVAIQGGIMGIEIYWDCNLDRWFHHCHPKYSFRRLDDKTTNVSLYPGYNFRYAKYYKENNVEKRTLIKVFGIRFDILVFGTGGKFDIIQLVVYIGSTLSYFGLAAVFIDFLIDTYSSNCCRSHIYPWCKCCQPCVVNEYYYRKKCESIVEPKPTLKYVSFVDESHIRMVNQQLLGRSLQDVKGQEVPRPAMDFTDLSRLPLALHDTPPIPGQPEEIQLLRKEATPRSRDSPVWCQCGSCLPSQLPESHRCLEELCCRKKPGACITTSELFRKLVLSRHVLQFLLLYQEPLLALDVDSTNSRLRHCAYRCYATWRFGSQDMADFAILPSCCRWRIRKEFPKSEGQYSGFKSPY
Test: Evaluation of a human P2X7 receptor inhibitory activity (Yo-Pro uptake, BzATP stimulation, FLIPR TETRA)
Type: cell-based
Settings: antagonistic activity for the human P2X7 receptor, 1321N1 cell transfected with the human P2X7 receptor gene, Yo-Pro fluorescence
Experimental: Test Example 1 Evaluation of a Human P2X7 Receptor Inhibitory Activity
Stably expressing cell line (1321N1 cell transfected with the human P2X7 receptor gene (GenBank accession number NM_002562.5 including T606C and G952A SNP)) was used. The cells were seeded in a 384-well microtiter plate at a concentration of 8000 cells/well and cultured in the medium (10% fetal bovine serum, 25 mM HEPES, 1% penicillin and streptomycin in DMEM) for one day at 37° C. under 5% carbon dioxide atmosphere. After replacing with 20 μL of the HBSS buffer (20 mM HEPES. 55.6 mM D-glucose, 1×HBSS(−), pH 7.4-7.5), 15 μL of 17.3 μM Yo-Pro solution in the HBSS buffer was added. The plate was placed in high-throughput cellular screening system FLIPR TETRA (Molecullar Devices, LLC.) and 15 μL of 130 μM BzATP solution in the HBSS buffer was added. Measurement of fluorescence intensity by FLIPR TETRA was started. After eight minutes, 15 μL of DMSO solutions containing different concentrations of the compound of the present invention as prepared by dilution with the HBSS buffer were dispensed to each well through the built-in automatic dispenser, and the measurement of fluorescence intensity was continued for 20 minutes. The maximum fluorescence intensity without the compound of the present invention is calculated as 0% inhibition and the maximum fluorescence intensity when the reference compound was added is calculated as 100% inhibition. Changing values of fluorescence intensity by the compound of the present invention were calculated by difference between maximum and minimum fluorescence intensity for 20 minutes. Inhibition ratios (%) were calculated from the following equation:
[formula] IC50 was calculated using logistic approximation.

SMILES	IC50 (class symbols)	IC50
COc1cn(Cc2ccccn2)c(-c2cccc(C(F)(F)F)c2Cl)nc1=O [II-018]	100 to 500 nM	–
COc1cn(Cc2cccc(CO)c2)c(-c2cccc(C(F)(F)F)c2Cl)nc1=O [II-019]	50 to 100 nM	–
COc1cn(Cc2ccncc2)c(-c2cccc(C(F)(F)F)c2Cl)nc1=O [II-020]	1000 to 10000 nM	–
CC(C)Oc1cn(Cc2ccccc2)c(-c2cccc(C(F)(F)F)c2Cl)nc1=O [II-021]	50 to 100 nM	–
N#CCOc1cn(Cc2ccccc2)c(-c2cccc(C(F)(F)F)c2Cl)nc1=O [II-022]	< 50 nM	–
O=c1nc(-c2cccc(C(F)(F)F)c2Cl)n(Cc2ccccc2)cc1OCc1ccccc1 [II-023]	< 50 nM	–
CCOc1cn(Cc2ccccc2)c(-c2cccc(C(F)(F)F)c2Cl)nc1=O [II-024]	50 to 100 nM	–
O=c1nc(-c2cccc(C(F)(F)F)c2Cl)n(Cc2ccccc2)cc1OCCO [II-025]	50 to 100 nM	–
COc1cn(Cc2cccnc2C)c(-c2cccc(C(F)(F)F)c2Cl)nc1=O [II-026]	50 to 100 nM	–
NCCOc1cn(Cc2ccccc2)c(-c2cccc(C(F)(F)F)c2Cl)nc1=O [II-027]	500 to 1000 nM	–
CN(C)CCOc1cn(Cc2ccccc2)c(-c2cccc(C(F)(F)F)c2Cl)nc1=O [II-028]	500 to 1000 nM	–
CC1(COc2cn(Cc3ccccc3)c(-c3cccc(C(F)(F)F)c3Cl)nc2=O)COC1 [II-029]	100 to 500 nM	–
Cc1cn(Cc2ccccc2)c(-c2cccc(C(F)(F)F)c2Cl)nc1=O [II-030]	–	210 nM
O=c1nc(-c2cccc(C(F)(F)F)c2Cl)n(Cc2ccccc2)cc1F [II-031]	–	58 nM
COc1cn(CC#N)c(-c2cccc(C(F)(F)F)c2Cl)nc1=O [II-032]	–	1000 nM
O=c1nc(-c2cccc(C(F)(F)F)c2Cl)n(Cc2ccccc2)cc1OCC(F)(F)F [II-033]	–	60 nM
CC(=O)COc1cn(Cc2ccccc2)c(-c2cccc(C(F)(F)F)c2Cl)nc1=O [II-034]	50 to 100 nM	–
O=c1nc(-c2cccc(C(F)(F)F)c2Cl)n(Cc2ccccc2)cc1OC(F)F [II-035]	100 to 500 nM	–
O=c1nc(-c2cccc(C(F)(F)F)c2Cl)n(Cc2ccccc2)cc1C(F)(F)F [II-036]	100 to 500 nM	–
N#Cc1cn(Cc2ccccc2)c(-c2cccc(C(F)(F)F)c2Cl)nc1=O [II-037]	< 50 nM	–
NC(=O)c1cn(Cc2ccccc2)c(-c2cccc(C(F)(F)F)c2Cl)nc1=O [II-038]	500 to 1000 nM	–
COc1cn(C(C)c2ccccc2)c(-c2cccc(C(F)(F)F)c2Cl)nc1=O (stereo not shown) [II-039]	50 to 100 nM	–
C#CCOc1cn(Cc2ccccc2)c(-c2cccc(C(F)(F)F)c2Cl)nc1=O [II-040]	< 50 nM	–

SMILES	IC50 (class symbols)	IC50
CC(C#N)Oc1cn(Cc2ccccc2)c(-c2cccc(C(F)(F)F)c2Cl)nc1=O (stereo not shown) [II-041]	< 50 nM	–
CC(C)(C)OC(=O)Nc1cn(Cc2ccccc2)c(-c2cccc(C(F)(F)F)c2Cl)nc1=O [II-042]	50 to 100 nM	–
N#CCNc1cn(Cc2ccccc2)c(-c2cccc(C(F)(F)F)c2Cl)nc1=O [II-043]	50 to 100 nM	–
CNc1cn(Cc2ccccc2)c(-c2cccc(C(F)(F)F)c2Cl)nc1=O [II-044]	100 to 500 nM	–
Nc1cn(Cc2ccccc2)c(-c2cccc(C(F)(F)F)c2Cl)nc1=O [II-045]	–	270 nM
CC(=O)Nc1cn(Cc2ccccc2)c(-c2cccc(C(F)(F)F)c2Cl)nc1=O [II-046]	–	180 nM
CS(=O)(=O)Nc1cn(Cc2ccccc2)c(-c2cccc(C(F)(F)F)c2Cl)nc1=O [II-047]	100 to 500 nM	–
O=c1ccn(Cc2ccccc2)c(-c2cccc(C(F)(F)F)c2Cl)n1 [II-048]	100 to 500 nM	–
N#Cc1cn(Cc2ccc(F)cc2)c(-c2cccc(C(F)(F)F)c2Cl)nc1=O [II-049]	50 to 100 nM	–
N#CCn1cc(-c2ccccc2)c(=O)nc1-c1cccc(C(F)(F)F)c1Cl [II-050]	100 to 500 nM	–
CN(C)c1cn(Cc2ccccc2)c(-c2cccc(C(F)(F)F)c2Cl)nc1=O [II-051]	100 to 500 nM	–
COc1cn(Cc2cccc3ncccc23)c(-c2cccc(C(F)(F)F)c2Cl)nc1=O [II-052]	< 50 nM	–
COC(=O)Nc1cn(Cc2ccccc2)c(-c2cccc(C(F)(F)F)c2Cl)nc1=O [II-053]	–	71 nM
O=C(Nc1cn(Cc2ccccc2)c(-c2cccc(C(F)(F)F)c2Cl)nc1=O)OCC(F)(F)F [II-054]	100 to 500 nM	–
COc1cn(Cc2cccc3ccccc23)c(-c2cccc(C(F)(F)F)c2Cl)nc1=O [II-055]	–	20 nM
COc1cn(Cc2ccccc2)c(-c2cccc(Cl)c2Cl)nc1=O [II-056]	–	130 nM
COc1cn(Cc2ccccc2C)c(C2=CCCCC2)nc1=O [II-057]	1000 to 10000 nM	–
COc1cn(Cc2ccccc2C)c(-c2ccccc2)nc1=O [II-058]	1000 to 10000 nM	–
COc1cn(Cc2ccccc2C)c(-c2cccc(Cl)c2)nc1=O [II-059]	1000 to 10000 nM	–
COc1cn(Cc2ccccc2C)c(-c2ccc(Cl)cc2)nc1=O [II-060]	1000 to 10000 nM	–
COc1cn(Cc2ccccc2C)c(-c2ccccc2F)nc1=O [II-061]	1000 to 10000 nM	–
COc1cn(Cc2ccccc2C)c(-c2cccc(F)c2)nc1=O [II-062]	1000 to 10000 nM	–
COc1cn(Cc2ccccc2C)c(-c2ccc(F)cc2)nc1=O [II-063]	1000 to 10000 nM	–

SMILES	IC50 (class symbols)	IC50
COc1cn(Cc2ccccc2C)c(-c2ccccc2C(F)(F)F)nc1=O [II-064]	500 to 1000 nM	–
COc1cn(Cc2ccccc2C)c(-c2cccc(C(F)(F)F)c2)nc1=O [II-065]	100 to 500 nM	–
COc1cn(Cc2ccccc2C)c(-c2ccc(C(F)(F)F)cc2)nc1=O [II-066]	1000 to 10000 nM	–
COc1cn(Cc2ccccc2C)c(-c2ccc(-c3ccccc3)cc2)nc1=O [II-067]	1000 to 10000 nM	–
COc1cn(Cc2ccccc2C)c(-c2cccc(-c3ccccc3)c2)nc1=O [II-068]	1000 to 10000 nM	–
COc1cn(Cc2ccccc2)c(C2=CCCCCC2)nc1=O [II-069]	1000 to 10000 nM	–
COc1cn(Cc2ccccc2)c(-c2cnn(Cc3ccccc3)c2)nc1=O [II-070]	1000 to 10000 nM	–
COc1cn(Cc2ccccc2)c(C2=C[C@H]3CC[C@@H]2C3)nc1=O [II-071]	1000 to 10000 nM	–
COc1cn(Cc2ccccc2)c(C2=CCSCC2)nc1=O [II-072]	1000 to 10000 nM	–
COc1cn(Cc2ccccc2)c(C2=CCC3(CC2)CC3)nc1=O [II-073]	–	630 nM
COc1cn(Cc2ccccc2C)c(-c2ccccc2Cl)nc1=O [II-074]	500 to 1000 nM	–
O=c1ccn(CCc2ccccc2)c(-c2cccc(C(F)(F)F)c2Cl)n1 [II-076]	1000 to 10000 nM	–
O=c1ccn(CC2CCCCC2)c(-c2cccc(C(F)(F)F)c2Cl)n1 [II-077]	–	610 nM
COc1cn(Cc2ccccc2)c(-c2cccc(F)c2F)nc1=O [II-078]	500 to 1000 nM	–
COc1cccc(-c2nc(=O)c(OC)cn2Cc2ccccc2)c1Cl [II-079]	1000 to 10000 nM	–
O=c1nc(-c2cccc(C(F)(F)F)c2Cl)n(Cc2ccccc2)cc1Oc1ccccc1 [II-080]	50 to 100 nM	–
COc1cn(Cc2ccccc2)c(-c2cccc(Cl)c2C)nc1=O [II-081]	500 to 1000 nM	–
COc1cn(Cc2ccccc2)c(-c2ccc(Cl)cc2Cl)nc1=O [II-082]	–	190 nM
COc1cn(Cc2ccccc2)c(-c2cccc(Cl)c2C(F)(F)F)nc1=O [II-083]	50 to 100 nM	–
COc1cn(Cc2ccccc2)c(-c2ccc(Cl)c(Cl)c2)nc1=O [II-084]	100 to 500 nM	–
N#CCn1cc(OCc2ccccc2)c(=O)nc1-c1cccc(C(F)(F)F)c1Cl [II-085]	< 50 nM	–
